How the values were obtained:
[1] = test system: MOLM-13; assay: Cytotoxicity against human MOLM-13 cells assessed as induction of cell death incubated for 24 hrs by WST-1 assay; conditions: MOLM-13, 24 h
[2] = test system: HCT-116; assay: Cytotoxicity against human HCT-116 cells assessed as inhibition of cell growth incubated for 24 hrs by MTT assay; format: functional, cell-based; conditions: HCT-116, 24 h
[3] = target: Serine/threonine-protein kinase N2 (Homo sapiens, UniProt Q16513); assay: Inhibition of human PRK2 using ISDELMDATFADQEAKKK as substrate in presence of ATP
[4] = target: Serine/threonine-protein kinase pim-2 (Homo sapiens, UniProt Q9P1W9); assay: Inhibition of PIM-2 (unknown origin)
[5] = target: Glycogen synthase kinase-3 beta (Homo sapiens, UniProt P49841); assay: Inhibition of human GSK3beta using Poly Glut Tyr as substrate in presence of ATP
[6] = target: Serine/threonine-protein kinase pim-1 (Homo sapiens, UniProt P11309)
Description: Inhibition of PIM-1 (unknown origin)

[7] = target: MAP/microtubule affinity-regulating kinase 3 (Homo sapiens, UniProt P27448); assay: Inhibition of human MARK3 using ATPKKLNRTLSVA as substrate in presence of ATP
[8] = target: T1, Tyrosine-protein kinase JAK3 (Homo sapiens, UniProt P52333); assay: Inhibition of human JAK3 using MBP as substrate in presence of ATP
T1 sequence (P52333 whole entry): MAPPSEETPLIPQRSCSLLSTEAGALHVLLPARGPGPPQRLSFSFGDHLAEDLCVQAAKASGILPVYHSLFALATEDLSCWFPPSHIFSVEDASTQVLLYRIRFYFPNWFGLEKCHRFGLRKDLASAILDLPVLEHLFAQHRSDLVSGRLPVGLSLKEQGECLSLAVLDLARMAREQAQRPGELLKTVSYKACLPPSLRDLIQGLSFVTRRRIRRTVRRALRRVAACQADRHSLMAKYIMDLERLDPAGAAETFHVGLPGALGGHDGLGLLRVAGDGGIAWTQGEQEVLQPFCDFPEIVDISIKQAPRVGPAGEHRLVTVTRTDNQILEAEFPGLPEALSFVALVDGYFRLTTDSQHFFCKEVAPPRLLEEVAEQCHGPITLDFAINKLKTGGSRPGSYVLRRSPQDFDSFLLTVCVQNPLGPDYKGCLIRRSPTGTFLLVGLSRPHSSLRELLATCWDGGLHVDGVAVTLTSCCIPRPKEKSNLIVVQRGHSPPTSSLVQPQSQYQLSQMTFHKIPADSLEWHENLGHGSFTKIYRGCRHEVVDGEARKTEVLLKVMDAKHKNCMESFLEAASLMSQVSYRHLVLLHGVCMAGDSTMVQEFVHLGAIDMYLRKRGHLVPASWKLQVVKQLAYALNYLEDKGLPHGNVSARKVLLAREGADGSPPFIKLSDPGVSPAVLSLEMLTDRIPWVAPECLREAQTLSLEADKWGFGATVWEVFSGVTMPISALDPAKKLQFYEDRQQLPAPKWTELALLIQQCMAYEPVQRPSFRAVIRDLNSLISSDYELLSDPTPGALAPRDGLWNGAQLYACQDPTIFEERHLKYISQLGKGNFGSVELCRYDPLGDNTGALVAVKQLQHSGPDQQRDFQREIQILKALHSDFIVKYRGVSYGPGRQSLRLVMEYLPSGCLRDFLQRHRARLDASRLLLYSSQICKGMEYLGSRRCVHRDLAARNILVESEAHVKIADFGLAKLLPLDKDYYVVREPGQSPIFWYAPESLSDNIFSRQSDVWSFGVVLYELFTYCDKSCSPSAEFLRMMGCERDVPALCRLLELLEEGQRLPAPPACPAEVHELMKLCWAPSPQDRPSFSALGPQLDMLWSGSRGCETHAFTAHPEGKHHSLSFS

[9] = target: 5'-AMP-activated protein kinase catalytic subunit alpha-2 (Homo sapiens, UniProt P54646); assay: Inhibition of human AMPK using HMRSAMSGLHLVKRR as substrate in presence of ATP
5'-AMP-activated protein kinase catalytic subunit alpha-2, sequence (P54646 whole entry): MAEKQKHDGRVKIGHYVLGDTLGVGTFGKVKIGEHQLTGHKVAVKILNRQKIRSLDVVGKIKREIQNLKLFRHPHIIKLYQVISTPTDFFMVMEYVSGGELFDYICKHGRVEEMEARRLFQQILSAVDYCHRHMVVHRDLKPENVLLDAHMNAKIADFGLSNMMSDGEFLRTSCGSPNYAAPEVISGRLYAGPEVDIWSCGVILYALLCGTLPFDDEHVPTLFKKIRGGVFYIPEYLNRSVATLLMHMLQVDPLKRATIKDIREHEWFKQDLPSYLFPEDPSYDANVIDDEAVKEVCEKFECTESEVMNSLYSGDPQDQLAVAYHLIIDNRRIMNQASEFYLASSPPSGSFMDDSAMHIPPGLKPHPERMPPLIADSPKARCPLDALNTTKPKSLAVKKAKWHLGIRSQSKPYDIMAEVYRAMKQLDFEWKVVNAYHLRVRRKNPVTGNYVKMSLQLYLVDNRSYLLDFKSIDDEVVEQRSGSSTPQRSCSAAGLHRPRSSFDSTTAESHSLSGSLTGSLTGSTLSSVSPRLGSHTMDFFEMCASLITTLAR

Serine/threonine-protein kinase N2, sequence (Q16513 whole entry): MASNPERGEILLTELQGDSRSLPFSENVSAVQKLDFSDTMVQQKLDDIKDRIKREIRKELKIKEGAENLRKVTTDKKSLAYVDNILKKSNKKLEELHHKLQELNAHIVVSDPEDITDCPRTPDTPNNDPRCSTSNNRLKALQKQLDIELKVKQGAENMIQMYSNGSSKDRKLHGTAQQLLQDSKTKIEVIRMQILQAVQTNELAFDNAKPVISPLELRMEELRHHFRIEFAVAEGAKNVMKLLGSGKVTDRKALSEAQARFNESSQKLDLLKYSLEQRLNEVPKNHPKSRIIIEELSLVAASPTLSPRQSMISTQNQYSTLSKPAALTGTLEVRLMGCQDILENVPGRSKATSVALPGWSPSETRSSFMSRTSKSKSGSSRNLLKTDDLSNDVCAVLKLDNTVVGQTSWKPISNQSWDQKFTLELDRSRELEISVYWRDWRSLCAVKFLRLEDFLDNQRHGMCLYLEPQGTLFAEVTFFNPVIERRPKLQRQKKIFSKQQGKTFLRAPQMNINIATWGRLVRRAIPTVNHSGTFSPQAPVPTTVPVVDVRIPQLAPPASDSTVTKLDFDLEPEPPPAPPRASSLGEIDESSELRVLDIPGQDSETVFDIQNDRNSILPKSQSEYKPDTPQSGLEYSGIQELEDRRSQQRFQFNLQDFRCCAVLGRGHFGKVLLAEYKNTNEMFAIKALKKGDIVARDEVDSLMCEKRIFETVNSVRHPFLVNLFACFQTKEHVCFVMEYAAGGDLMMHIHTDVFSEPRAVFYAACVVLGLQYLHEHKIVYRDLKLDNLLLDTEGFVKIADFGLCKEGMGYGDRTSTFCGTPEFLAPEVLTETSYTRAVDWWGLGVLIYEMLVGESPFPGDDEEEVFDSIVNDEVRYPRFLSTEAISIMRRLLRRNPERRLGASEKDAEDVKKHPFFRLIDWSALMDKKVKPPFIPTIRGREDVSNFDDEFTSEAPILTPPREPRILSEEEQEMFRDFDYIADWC
Glycogen synthase kinase-3 beta, sequence (P49841 whole entry): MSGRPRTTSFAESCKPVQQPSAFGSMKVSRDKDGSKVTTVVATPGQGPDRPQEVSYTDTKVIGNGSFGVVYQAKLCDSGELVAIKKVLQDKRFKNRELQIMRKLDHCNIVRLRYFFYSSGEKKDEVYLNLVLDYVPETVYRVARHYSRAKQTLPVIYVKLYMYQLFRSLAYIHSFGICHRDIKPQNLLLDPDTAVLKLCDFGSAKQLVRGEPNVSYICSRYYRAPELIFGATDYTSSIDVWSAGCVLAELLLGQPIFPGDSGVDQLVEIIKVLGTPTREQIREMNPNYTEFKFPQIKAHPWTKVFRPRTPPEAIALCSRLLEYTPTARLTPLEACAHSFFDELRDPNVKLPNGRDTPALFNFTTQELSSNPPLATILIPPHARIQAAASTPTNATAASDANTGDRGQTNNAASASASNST
Serine/threonine-protein kinase pim-2, sequence (Q9P1W9 whole entry): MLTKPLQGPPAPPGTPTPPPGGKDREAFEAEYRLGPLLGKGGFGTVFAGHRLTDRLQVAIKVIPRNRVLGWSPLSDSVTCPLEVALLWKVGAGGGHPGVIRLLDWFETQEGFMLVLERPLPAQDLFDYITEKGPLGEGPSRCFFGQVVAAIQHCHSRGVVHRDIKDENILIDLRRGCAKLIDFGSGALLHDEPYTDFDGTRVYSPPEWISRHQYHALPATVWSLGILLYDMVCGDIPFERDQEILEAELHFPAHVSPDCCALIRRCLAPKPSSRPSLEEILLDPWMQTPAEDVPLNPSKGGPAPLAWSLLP
MAP/microtubule affinity-regulating kinase 3, sequence (P27448 whole entry): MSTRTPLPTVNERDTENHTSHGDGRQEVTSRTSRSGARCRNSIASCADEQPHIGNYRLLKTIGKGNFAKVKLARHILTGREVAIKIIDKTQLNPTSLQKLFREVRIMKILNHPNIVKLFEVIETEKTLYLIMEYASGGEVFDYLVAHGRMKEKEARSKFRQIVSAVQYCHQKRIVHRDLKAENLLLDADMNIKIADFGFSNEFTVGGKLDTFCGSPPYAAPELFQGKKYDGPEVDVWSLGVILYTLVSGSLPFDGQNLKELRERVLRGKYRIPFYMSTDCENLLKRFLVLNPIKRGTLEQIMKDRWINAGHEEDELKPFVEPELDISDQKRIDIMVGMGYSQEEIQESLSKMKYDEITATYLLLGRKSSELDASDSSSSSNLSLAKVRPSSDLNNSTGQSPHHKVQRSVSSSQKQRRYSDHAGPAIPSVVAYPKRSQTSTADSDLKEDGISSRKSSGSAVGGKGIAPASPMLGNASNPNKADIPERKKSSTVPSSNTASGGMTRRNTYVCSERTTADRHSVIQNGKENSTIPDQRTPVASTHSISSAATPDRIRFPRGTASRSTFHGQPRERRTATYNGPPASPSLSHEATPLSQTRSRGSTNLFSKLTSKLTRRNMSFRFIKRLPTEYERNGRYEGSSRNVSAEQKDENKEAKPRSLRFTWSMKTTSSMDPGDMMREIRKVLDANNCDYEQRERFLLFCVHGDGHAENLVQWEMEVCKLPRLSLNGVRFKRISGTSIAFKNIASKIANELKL
Serine/threonine-protein kinase pim-1, sequence (P11309 whole entry): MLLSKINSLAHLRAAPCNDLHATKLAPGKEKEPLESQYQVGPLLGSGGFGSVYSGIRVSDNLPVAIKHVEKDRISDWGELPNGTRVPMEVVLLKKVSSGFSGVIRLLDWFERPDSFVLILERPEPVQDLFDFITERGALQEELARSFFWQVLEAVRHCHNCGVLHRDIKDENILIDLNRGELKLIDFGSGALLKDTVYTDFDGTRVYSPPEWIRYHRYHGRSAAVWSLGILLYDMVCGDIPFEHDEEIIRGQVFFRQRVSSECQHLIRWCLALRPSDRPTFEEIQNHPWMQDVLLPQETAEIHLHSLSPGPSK

Compound	EC50 [1]	other results
NCCCn1c2ccccc2c2c3[nH]ncc3c3c4ccccc4[nH]c3c21	> 40 µM	–
CN(C)CCCn1c2ccccc2c2c3[nH]ncc3c3c4ccccc4[nH]c3c21	3.8 µM	–
OCCCCn1c2ccccc2c2c3[nH]ncc3c3c4ccccc4[nH]c3c21	4.1 µM	–
OC[C@H]1O[C@@H](n2c3ccccc3c3c4cn[nH]c4c4c5ccccc5[nH]c4c32)[C@H](O)[C@@H](O)[C@@H]1O	–	IC50 [2]: 11 µM
CCCCCn1c2ccccc2c2c3[nH]ncc3c3c4ccccc4[nH]c3c21	15 µM	–
CCN(CC)CCCCn1c2ccccc2c2c3[nH]ncc3c3c4ccccc4[nH]c3c21	4.3 µM	–
NCCCCn1c2ccccc2c2c3[nH]ncc3c3c4ccccc4[nH]c3c21	2.7 µM	–
CCN(CC)CCCn1c2ccccc2c2c3[nH]ncc3c3c4ccccc4[nH]c3c21	> 4 µM	–
CCCCn1c2ccccc2c2c3[nH]ncc3c3c4ccccc4[nH]c3c21	> 5 µM	–
CCCCCn1c2ccccc2c2c3cn[nH]c3c3c4ccccc4[nH]c3c21	> 5 µM	–
OC[C@H]1O[C@@H](n2c3ccccc3c3c4[nH]ncc4c4c5ccccc5[nH]c4c32)[C@H](O)[C@@H](O)[C@@H]1O	–	IC50 [2]: 12 µM
CNCCCn1c2ccccc2c2c3cn[nH]c3c3c4ccccc4[nH]c3c21	–	IC50 [3]: 0.009 µM; IC50 [4]: 0.316 µM; IC50 [5]: 0.128 µM; IC50 [6]: 0.045 µM; IC50 [7]: 0.024 µM; IC50 [8]: 0.041 µM; IC50 [9]: 0.0144 µM
